Assay results as given in patent publication US7369696B2, “Classification of cells into subpopulations using cell classifying data” (GE Healthcare UK Limited, priority 2003, dated 2008).

Test system: U2OS cells (ATCC HTB-96) transfected with cyclin B1 promoter/D-box/CRS-GFP cell cycle reporter construct
Test: Effect of cell cycle blocking agents on GFP fluorescence from cell cycle phase marker, transiently transfected cells
Assay type: cell-based
Settings: U2OS cells 24 hours after transfection, exposed to blocker for a further 24 hours; confocal scanning imager with automated image analysis; control = culture media alone
Experimental: U2OS cells (ATCC HTB-96) were cultured in wells of a 96 well microtitre plate. Cells were transfected with a cell cycle reporter construct prepared according to Example 1, comprising a cyclin B1 promoter operably linked to sequences encoding the cyclin B1 D-box, the cyclin B1 CRS, and GFP in a pCORON4004 vector (Amersham Biosciences) using Fugene 6 (Roche) as the transfection agent.
Following 24 hours of culture, cells were exposed to the specific cell cycle blockers mimosine (blocks at G1/S phase boundary) or demecolcine (blocks in M phase). Control cells were exposed to culture media alone.
Cells were incubated for a further 24 hours and then analysed for nuclear GFP expression using a confocal scanning imager with automated image analysis (IN Cell Analysis System, Amersham Biosciences).

Row | Compound | nuclear GFP expression (fluorescence) compared to control cells
1 | CN[C@H]1CCc2cc(OC)c(OC)c(OC)c2-c2ccc(OC)c(=O)cc21 [demecolcine] | increased fluorescence compared to control cells
2 | NC(Cn1ccc(=O)c(O)c1)C(=O)O (centres unmarked) [mimosine] | decreased fluorescence compared to control cells
